The results in this text go back to patent US11459358B2, “Substances for targeting various selected organs or tissues” (BioMarin Technologies B.V., priority 2016, dated 2022).

“Also recorded” adds a separate entry of the source.

Experiment [1] deals with Human control myotubes. In words: Uptake of FITC-labeled peptides in human control myotubes, fluorescence microscopy. As to conditions: 2.25 μM FITC-labeled peptide. The class given is cell-based. On the procedure: Human control myoblasts (Km155.c25 cells, (Zhu et al., 2007)) were grown in skeletal muscle cell growth medium (Promocell, C-23160) supplemented with an extra 15% FBS (from, Gibco, the Netherlands) and 50 μg/ml gentamicin (PAA Laboratories) in uncoated flasks until 70-80% confluence was reached. Cells were plated in a 6 wells plate with 0.5% gelatin coated glass slides (Sigma Aldrich, the Netherlands), at a density of 1×10^5 cells per well, 48 hours prior to differentiation. Reaching 90% confluence, medium was switched to differentiation medium (Dulbecco's medium (without phenol red) with 2% FBS, 50 μg/ml gentamicin, 2% glutamax and 1% glucose (all from Gibco-BRL, the Netherlands)). Cells were allowed to differentiate for 3-5d.
(§1) Fluorescently labeled peptides were labeled using fluorescein isothiocyanate (FITC) and were obtained from Pepscan (Lelystad, the Netherlands). The FITC-label was attached to an Ahx (6-aminohexanoic acid) spacer which was added to the N-terminal end of the peptide, the C-terminal part was amidated and peptides were made circular by disulfide cyclization. Peptides according to the invention had cysteine flanking moieties wherein the flanking moieties were directly adjacent to the targeting sequences SEQ ID NOs: 14-25.
Human control myotubes and primary human cardiomyocytes were washed 2 times with PBS and incubated with 2.25 μM of FITC-labeled peptides in serum free media for 3 h at 37° C. and 5% CO2. Cells were washed 3 times with PBS and fixed with cold methanol (−20° C.) for 5 min (human control myotubes) or 10 min (human cardiomyocytes). Subsequently the glass slides were shortly air dried, and embedded on microscope slides with Vectashield hard set with 4′,6-diamidino-2-phenylindole (DAPI) mounting media (Vector laboratories). After drying 30 min, slides were analyzed with fluorescence microscopy (Leica DM5500 B) using a CCD camera (Leica DFC 360 FX). Representative pictures are shown. […]
The linear versions of the peptides comprising SEQ ID NO: 24 or SEQ ID NO: 25, in which the Cys residues were replaced with Ala residues, were labelled as described above and incubated with human control myotubes for 3 h (FIG. 3d).

The test system of experiment [2] is human cardiomyocytes. In words: Uptake of FITC-labeled peptides in human cardiomyocytes, fluorescence microscopy. The class given is cell-based. As to conditions: 2.25 μM FITC-labeled peptide. As to the method:
Immortalized human cardiomyocytes (applied biological materials, Canada) were grown in Prigrow I medium supplemented with 10% FBS and 1% P/S in collagen coated flasks. Cells were plated in collagen coated glass slides in 6 wells plates and grown until confluence prior to experiments.
as §1
Human control myotubes and primary human cardiomyocytes were washed 2 times with PBS and incubated with 2.25 μM of FITC-labeled peptides in serum free media for 3 h at 37° C. and 5% CO2. Cells were washed 3 times with PBS and fixed with cold methanol (−20° C.) for 5 min (human control myotubes) or 10 min (human cardiomyocytes). Subsequently the glass slides were shortly air dried, and embedded on microscope slides with Vectashield hard set with 4′,6-diamidino-2-phenylindole (DAPI) mounting media (Vector laboratories). After drying 30 min, slides were analyzed with fluorescence microscopy (Leica DM5500 B) using a CCD camera (Leica DFC 360 FX). Representative pictures are shown.
FITC-labeled peptides comprising SEQ ID NO:24 or SEQ ID NO: 25 were incubated at a dose of 2.25 μM, slides were imbedded in mounting media containing DAPI and analyzed with Leica microscopy using a CCD camera (Leica DFC 360 FX); Human control myotubes for 1 or 3 h (FIG. 3a) and human cardiomyocytes for 3 h (FIG. 3b).

As to “SEQ ID NO: 24: FITC-Ahx N-terminal, C-terminal amide, disulfide-cyclized peptide with Cys residues flanking targeting sequence LNSLFGS (N-terminal FITC-Ahx, C-terminal amide, disulfide cyclized; Randomly generated peptide)”, the “fluorescence in the cells” value in experiment [1] (1 h) is “clear fluorescence throughout the cells and in the nuclei”; in experiment [1] (3 h) it was “Brightest fluorescence”; in experiment [1] (3 h, listed as SEQ ID NO:24), “clear fluorescence throughout the cells and in the nuclei”; in experiment [2] (3 h) it was “Brightest fluorescence”; in experiment [2] (3 h, listed as SEQ ID NO:24) it was “clear fluorescence throughout the cells and in the nuclei”.
Turning to “SEQ ID NO: 25: FITC-Ahx N-terminal, C-terminal amide, disulfide-cyclized peptide with Cys residues flanking targeting sequence QLFPLFR (N-terminal FITC-Ahx, C-terminal amide, disulfide cyclized; Randomly generated peptide)”, the “fluorescence in the cells” value in experiment [1] (10 minutes) was “positive fluorescence”; in experiment [1] (1 h) it was “clear fluorescence throughout the cells and in the nuclei”; in experiment [1] (3 h), “Brightest fluorescence; also recorded: clear fluorescence throughout the cells and in the nuclei”; in experiment [2] (10 minutes) it was “positive fluorescence”; in experiment [2] (3 h), “Brightest fluorescence; also recorded: clear fluorescence throughout the cells and in the nuclei”.
